Data set [1] concerns Escherichia coli. Nature of the data set: Toxicity in streptomycin-dependent lysogenic Escherichia coli W1709 (lambda) at 3.1 ug/ml. The format is organism-based. The settings on record: in vivo.
For data set [2], the system named is Escherichia coli. Nature of the data set: Toxicity in streptomycin-dependent lysogenic Escherichia coli W1709 (lambda) at 0.8 ug/ml. It counts as organism-based. The conditions noted are these: in vivo.
Data set [3] concerns P388. Briefly: In vivo antitumor activity against mouse P388 cells at 6.4 mg/kg relative to control. It counts as functional.
Data set [4] deals with Escherichia coli. Nature of the data set: Toxicity in streptomycin-dependent lysogenic Escherichia coli W1709 (lambda) at 12.5 ug/ml. The format is organism-based. The conditions noted are these: in vivo.
In data set [5] the test system is Enterobacteria phage lambda. Nature of the data set: Induction of lambda phage production in streptomycin-dependent lysogenic Escherichia coli W1709 (lambda) assessed as ratio of plaques in treated culture to control at 12.5 ug/ml. It counts as functional.
Data set [6] has as its system Bacillus subtilis. Briefly: Antibacterial activity against Bacillus subtilis assessed as growth inhibition at 50 ug/ml in 100 mm disk at pH 8.0 by single-disk method. The format is functional. The settings on record: read-out: IZ.
Data set [7] has as its system Bacillus subtilis. Nature of the data set: Antibacterial activity against Bacillus subtilis assessed as growth inhibition at 16.6 ug/ml in 100 mm disk at pH 8.0 by single-disk method. The format is functional. The settings on record: read-out: IZ.
The test system of data set [8] is Bacillus subtilis. Nature of the data set: Antibacterial activity against Bacillus subtilis assessed as growth inhibition at 5.5 ug/ml in 100 mm disk at pH 8.0 by single-disk method. The format is functional. The settings on record: read-out: IZ.
Data set [9] relates to Enterobacteria phage lambda. Nature of the data set: Induction of lambda phage production in streptomycin-dependent lysogenic Escherichia coli W1709 (lambda) assessed as ratio of plaques in treated culture to control at 3.1 ug/ml. The format is functional.
For data set [10], the system named is Enterobacteria phage lambda. Nature of the data set: Induction of lambda phage production in streptomycin-dependent lysogenic Escherichia coli W1709 (lambda) assessed as ratio of plaques in treated culture to control at 0.8 ug/ml. The format is functional.
In data set [11] the test system is Enterobacteria phage lambda. Nature of the data set: Induction of lambda phage production in streptomycin-dependent lysogenic Escherichia coli W1709 (lambda) assessed as ratio of plaques in treated culture to control at 0.2 ug/ml. The format is functional.
In data set [12] the test system is Enterobacteria phage lambda. Nature of the data set: Induction of lambda phage production in streptomycin-dependent lysogenic Escherichia coli W1709 (lambda) assessed as ratio of plaques in treated culture to control at 0.5 ug/ml. It counts as functional.
Data set [13] concerns P388. Briefly: In vivo antitumor activity against mouse P388 cells relative to control. The format is functional, organism-based.
Data set [14] relates to Bacillus subtilis. Briefly: Antibacterial activity against Bacillus subtilis assessed as growth inhibition at 12.5 ug/ml in 100 mm disk at pH 8.0 by single-disk method. The format is functional. The conditions noted are these: read-out: IZ.
Data set [15] deals with Bacillus subtilis. Briefly: Antibacterial activity against Bacillus subtilis assessed as growth inhibition at 3.1 ug/ml in 100 mm disk at pH 8.0 by single-disk method. It counts as functional. The settings on record: read-out: IZ.
The subject of data set [16] is Bacillus subtilis. Nature of the data set: Antibacterial activity against Bacillus subtilis assessed as growth inhibition at 0.8 ug/ml in 100 mm disk at pH 8.0 by single-disk method. The format is functional. The conditions noted are these: read-out: IZ.
Data set [17] concerns Bacillus subtilis. Briefly: Antibacterial activity against Bacillus subtilis assessed as growth inhibition at 0.2 ug/ml in 100 mm disk at pH 8.0 by single-disk method. It counts as functional. The settings on record: read-out: IZ.
For data set [18], the system named is Enterobacteria phage lambda. Nature of the data set: Induction of lambda phage production in streptomycin-dependent lysogenic Escherichia coli W1709 (lambda) assessed as ratio of plaques in treated culture to control at 0.0125 ug/ml. It counts as functional.
The subject of data set [19] is Escherichia coli. Briefly: Toxicity in streptomycin-dependent lysogenic Escherichia coli W1709 (lambda) at 0.5 ug/ml. It counts as organism-based. The settings on record: in vivo.

Each structure is given as a SMILES string. Calls of active or inactive are those of the source. The rule behind the calls is not given here.

With `COC1=C(C)C(=O)c2c(c(COC(N)=O)c3n2CCC3OC(C)=O)C1=O` (configuration not stated), the Activity entry in the data set on Escherichia coli [1], in the data set with Escherichia coli [2] and with Escherichia coli [4] was “Toxic” each time. For the same compound, the T/C in the data set on P388 [3] is 162%; in data set [5], above 49; in [9] it was above 74; in data set [10] it was above 49; in data set [11] it was 27.9. Also, the zone of inhibition at 50 µg/mL in the data set on Bacillus subtilis [6] was 35 mm. Further, the zone of inhibition at 16.6 µg/mL with Bacillus subtilis [7] turned out to be 35 mm. The zone of inhibition at 5.5 µg/mL in the data set with Bacillus subtilis [8] worked out at 31.2 mm.

In the case of `COC1=C(C)C(=O)c2c(c(COC(N)=O)c3n2CCC3N2CCCC2)C1=O` (configuration not stated), the T/C was determined as 1.2 in data set [12]; 2.1 in [5]; 3.6 in data set [9]; 1.6 in data set [10]; 1.3 in data set [11]. The outcome with P388 [13] was inactive. Further, in the data set with Escherichia coli [4], the Activity entry is listed as “Toxic”. Besides, the zone of inhibition at 50 µg/mL in the data set with Bacillus subtilis [6] came out at 33 mm. The zone of inhibition at 12.5 µg/mL in the data set on Bacillus subtilis [14] came out at 27.8 mm. The zone of inhibition at 3.1 µg/mL in the data set on Bacillus subtilis [15] was determined as 22 mm. Besides, the zone of inhibition at 0.8 µg/mL with Bacillus subtilis [16] came to 15.3 mm. In the data set with Bacillus subtilis [17], the zone of inhibition at 0.2 µg/mL amounted to 11.3 mm.

Turning to `COC1=C(C)C(=O)c2c(c(COC(N)=O)c3n2CCC3[N+]2(C)CCCC2)C1=O` (configuration not stated), the T/C in data set [12] is 1.1; in data set [5] it was 2.2; in data set [9], 1.2; in data set [10], 1.1; in data set [11] it was 1.1. Moreover, the result in the data set on P388 [13] was inactive. The zone of inhibition at 50 µg/mL with Bacillus subtilis [6] was 14.2 mm. Besides, in the data set on Bacillus subtilis [14], the zone of inhibition at 12.5 µg/mL was determined as 10 mm.

For `CO[C@@]12[C@H](COC(N)=O)C3=C(C(=O)C(C)=C(N)C3=O)N1C[C@@H]1N[C@@H]12` [MITOMYCIN], the results for the T/C (in [12]; in [18]; in the data set on P388 [3]) were 17.5, 8.6 and 283%, respectively. The Activity result in the data set on Escherichia coli [19] is “Toxic”. Besides, the zone of inhibition at 0.8 µg/mL with Bacillus subtilis [16] stood at 32 mm. The zone of inhibition at 0.2 µg/mL in the data set on Bacillus subtilis [17] was determined as 22.8 mm.

The record behind these values is ChEMBL document CHEMBL3244251, “Mitomycin antibiotics. Synthesis of 7-methoxy-1-(N-pyrrolidino)mitosene and its methiodide” (J Med Chem, 1978).
